Results from PubChem BioAssay AID330 (DTP/NCI, 2004).
Where “and” joins values, the source holds several entries; their conditions need not be identical. Equal values may be shown once. Toxic doses and inconclusive results are not listed.

System: P388 leukemia ip, CD2F1 mice, survival T/C
Test: NCI In Vivo Anticancer Drug Screen. Data for tumor model P388 Leukemia (intraperitoneal) in CD2F1 (CDF1) mice
Settings: endpoint: median survival time, higher = longer survival
Procedure, shortened: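 Mice carrying the transplanted tumor received test compound or vehicle. Survival was recorded in each group, and the value is the treated-group measurement divided by that of the vehicle-treated control group.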

[1] = dose: 50.0 mg/kg/injection, schedule: Q01DX009 (ip), vehicle: saline
[2] = dose: 100.0 mg/kg/injection, schedule: Q01DX009 (ip), vehicle: saline
[3] = dose: 200.0 mg/kg/injection, schedule: Q01DX009 (ip), vehicle: saline
[4] = dose: 60.0 mg/kg/injection, schedule: Q01DX005 (ip), vehicle: saline
[5] = dose: 120.0 mg/kg/injection, schedule: Q01DX005 (ip), vehicle: saline
[6] = dose: 25.0 mg/kg/injection, schedule: Q01DX005 (ip), vehicle: Klucel (hydroxypropylcellulose) (HPC)
[7] = dose: 50.0 mg/kg/injection, schedule: Q01DX009 (ip), vehicle: Klucel (hydroxypropylcellulose) (HPC)
[8] = dose: 100.0 mg/kg/injection, schedule: Q01DX009 (ip), vehicle: Klucel (hydroxypropylcellulose) (HPC)
[9] = dose: 200.0 mg/kg/injection, schedule: Q01DX009 (ip), vehicle: Klucel (hydroxypropylcellulose) (HPC)
[10] = dose: 50.0 mg/kg/injection, schedule: Q01DX005 (ip), vehicle: saline with Tween-80

Q: How did the T/C (dose: 25.0 mg/kg/injection, schedule: Q01DX009 (ip), vehicle: saline) turn out when CC(=O)Nc1cc(C)ns1 was run?
A: 101 % of control

Q: What about the T/C [1] of the same molecule?
A: 109 % of control

Q: And the T/C [2]?
A: 101 % of control

Q: What about the T/C [3] of the same molecule?
A: 89 % of control

Q: With CNC(=O)/C=C/C1=CN2C(=O)c3ccc(C)c(O)c3NC(OC)C2C1 (centres undefined) as the molecule, how does the T/C (dose: 0.01 mg/kg/injection, schedule: Q01DX009 (ip), vehicle: suspension in saline) read?
A: 102 % of control and 115 % of control

Q: And the T/C (dose: 0.02 mg/kg/injection, schedule: Q01DX009 (ip), vehicle: suspension in saline)?
A: 116 % of control

Q: And the T/C (dose: 0.05 mg/kg/injection, schedule: Q01DX009 (ip), vehicle: saline)?
A: 121 % of control

Q: What about the T/C (dose: 0.05 mg/kg/injection, schedule: Q01DX009 (ip), vehicle: suspension in saline) of the same molecule?
A: 120 % of control

Q: What about the T/C (dose: 0.2 mg/kg/injection, schedule: Q01DX009 (ip), vehicle: saline) of the same molecule?
A: 92 % of control

Q: And the T/C (dose: 0.2 mg/kg/injection, schedule: Q01DX009 (ip), vehicle: suspension in saline)?
A: 97 % of control

Q: With Nc1nnc(N)n1N as the molecule, how does the T/C (dose: 50.0 mg/kg/injection, schedule: Q01DX009 (ip), vehicle: saline with Tween-80) read?
A: 108 % of control

Q: And the T/C (dose: 100.0 mg/kg/injection, schedule: Q01DX009 (ip), vehicle: saline with Tween-80)?
A: 115 % of control

Q: What about the T/C (dose: 200.0 mg/kg/injection, schedule: Q01DX009 (ip), vehicle: saline with Tween-80) of the same molecule?
A: 99 % of control

Q: What about the T/C (dose: 400.0 mg/kg/injection, schedule: Q01DX009 (ip), vehicle: saline with Tween-80) of the same molecule?
A: 93 % of control

Q: Which results are given for CCc1cccc(C)c1NC(=O)C(=O)C(C#N)c1ccccc1 (centres undefined)?
A: T/C [4]: 105 % of control; T/C [5]: 108 % of control; T/C (dose: 240.0 mg/kg/injection, schedule: Q01DX005 (ip), vehicle: saline): 108 % of control

Q: How did the T/C (dose: 1.56 mg/kg/injection, schedule: Q01DX001 (ip), vehicle: saline) turn out when CC(C)(C(=O)O)C(C)(C)C(=O)O was run?
A: 102 % of control

Q: And the T/C (dose: 3.12 mg/kg/injection, schedule: Q01DX001 (ip), vehicle: saline)?
A: 101 % of control

Q: CC(=O)CCC(=O)c1ccoc1 was tested. Which T/C (dose: 3.12 mg/kg/injection, schedule: Q01DX005 (ip), vehicle: Klucel (hydroxypropylcellulose) (HPC)) did it give?
A: 94 % of control

Q: And the T/C (dose: 6.25 mg/kg/injection, schedule: Q01DX005 (ip), vehicle: Klucel (hydroxypropylcellulose) (HPC))?
A: 103 % of control

Q: What about the T/C (dose: 12.5 mg/kg/injection, schedule: Q01DX005 (ip), vehicle: Klucel (hydroxypropylcellulose) (HPC)) of the same molecule?
A: 100 % of control

Q: What about the T/C [6] of the same molecule?
A: 102 % of control and 95 % of control

Q: For COc1ccc([I+]c2cccc(Cl)c2)cc1Cl, which T/C (dose: 0.09 mg/kg/injection, schedule: Q01DX009 (ip), vehicle: saline with Tween-80) is on record?
A: 106 % of control

Q: And the T/C (dose: 0.18 mg/kg/injection, schedule: Q01DX009 (ip), vehicle: saline with Tween-80)?
A: 112 % of control

Q: And the T/C (dose: 0.37 mg/kg/injection, schedule: Q01DX009 (ip), vehicle: saline with Tween-80)?
A: 102 % of control

Q: What about the T/C (dose: 0.75 mg/kg/injection, schedule: Q01DX009 (ip), vehicle: saline with Tween-80) of the same molecule?
A: 122 % of control

Q: What about the T/C (dose: 12.5 mg/kg/injection, schedule: Q01DX009 (ip), vehicle: saline with Tween-80) of the same molecule?
A: 150 % of control and 159 % of control

Q: What about the T/C (dose: 25.0 mg/kg/injection, schedule: Q01DX009 (ip), vehicle: saline with Tween-80) of the same molecule?
A: 106 % of control and 112 % of control

Q: With CC1(c2ccccn2)OCCO1 as the molecule, how does the T/C [1] read?
A: 97 % of control

Q: And the T/C [2]?
A: 104 % of control

Q: And the T/C [3]?
A: 108 % of control

Q: For CNC(=O)C1CCCN1C(=O)C(Cl)Cl (centres undefined), which T/C [1] is on record?
A: 96 % of control

Q: What about the T/C [2] of the same molecule?
A: 93 % of control and 96 % of control

Q: And the T/C [3]?
A: 86 % of control and 92 % of control

Q: How did the T/C [4] turn out when CN(C)CCCN=C(N)CSP(=O)(O)O was run?
A: 98 % of control

Q: What about the T/C [5] of the same molecule?
A: 104 % of control

Q: For CC(=O)O[C@H]1C(=O)[C@]2(C)[C@@H](OC(C)=O)CC3OC[C@@]3(OC(C)=O)[C@H]2[C@H](OC(=O)c2ccccc2)[C@]2(O)C[C@H](OC(=O)[C@H](O)[C@@H](NC(=O)c3ccccc3)c3ccccc3)C(C)=C1C2(C)C (some centres undefined), which T/C (dose: 2.5 mg/kg/injection, schedule: Q01DX005 (ip), vehicle: DMSO) is on record?
A: 100 % of control

Q: And the T/C (dose: 5.0 mg/kg/injection, schedule: Q01DX005 (ip), vehicle: DMSO)?
A: 111 % of control

Q: Which T/C [6] does the source give for COC(=O)c1nnn(-c2ccccc2)n1 here?
A: 99 % of control

Q: And the T/C (dose: 50.0 mg/kg/injection, schedule: Q01DX005 (ip), vehicle: Klucel (hydroxypropylcellulose) (HPC))?
A: 101 % of control

Q: What about the T/C (dose: 100.0 mg/kg/injection, schedule: Q01DX005 (ip), vehicle: Klucel (hydroxypropylcellulose) (HPC)) of the same molecule?
A: 101 % of control

Q: For COC(=O)C1=C(N)C(C#N)=C(C)C(C)(O)C1 (centres undefined), which T/C [7] is on record?
A: 99 % of control

Q: And the T/C [8]?
A: 97 % of control

Q: What about the T/C [9] of the same molecule?
A: 108 % of control

Q: For Cc1onc(-c2c(Cl)cccc2Cl)c1C(=O)OCCOc1ccc(C(F)(F)F)cc1[N+](=O)[O-], which T/C (dose: 60.0 mg/kg/injection, schedule: Q01DX005 (ip), vehicle: saline with Tween-80) is on record?
A: 91 % of control

Q: And the T/C (dose: 120.0 mg/kg/injection, schedule: Q01DX005 (ip), vehicle: saline with Tween-80)?
A: 98 % of control

Q: And the T/C (dose: 240.0 mg/kg/injection, schedule: Q01DX005 (ip), vehicle: saline with Tween-80)?
A: 92 % of control

Q: COc1ccc(S(=O)(=O)N/N=C\c2cc([N+](=O)[O-])cc([N+](=O)[O-])c2O)c(OC)c1OC was tested. Which T/C [10] did it give?
A: 102 % of control

Q: And the T/C (dose: 100.0 mg/kg/injection, schedule: Q01DX005 (ip), vehicle: saline with Tween-80)?
A: 107 % of control

Q: What about the T/C (dose: 200.0 mg/kg/injection, schedule: Q01DX005 (ip), vehicle: saline with Tween-80) of the same molecule?
A: 99 % of control

Q: With CC(=O)OCC/C(SC(C)=O)=C(/C)N(C=O)Cc1cnc(C)nc1N as the molecule, how does the T/C [1] read?
A: 98 % of control

Q: What about the T/C [2] of the same molecule?
A: 94 % of control

Q: And the T/C [3]?
A: 100 % of control

Q: Which T/C (dose: 25.0 mg/kg/injection, schedule: Q01DX005 (ip), vehicle: saline) does the source give for OCC1CC2CCCCN2O1 (centres undefined) here?
A: 102 % of control

Q: What about the T/C (dose: 50.0 mg/kg/injection, schedule: Q01DX005 (ip), vehicle: saline) of the same molecule?
A: 101 % of control

Q: What about the T/C (dose: 100.0 mg/kg/injection, schedule: Q01DX005 (ip), vehicle: saline) of the same molecule?
A: 105 % of control

Q: What about the T/C (dose: 200.0 mg/kg/injection, schedule: Q01DX005 (ip), vehicle: saline) of the same molecule?
A: 106 % of control

Q: Which results are given for [CH3][Ge]([CH3])([CH3])[N]=S=[N][Ge]([CH3])([CH3])[CH3]?
A: T/C (dose: 12.5 mg/kg/injection, schedule: Q01DX005 (ip), vehicle: saline with Tween-80): 105 % of control; T/C (dose: 25.0 mg/kg/injection, schedule: Q01DX005 (ip), vehicle: saline with Tween-80): 100 % of control; T/C [10]: 99 % of control and 100 % of control

Q: What does the source list for COc1ccc(Cc2n[nH]c(=O)c3c(C)[nH]nc23)cc1?
A: T/C [7]: 93 % of control; T/C [8]: 100 % of control; T/C [9]: 119 % of control
